ChEMBL document CHEMBL1201862, “PubChem BioAssay data set” (2004)
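All cell lines were grown in 96-well plates and treated with compound for 48 hours. At the GI50, growth is halved.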 Activity calls are given as the source filed them. Rule as the data show it: active = GI50 up to about 1.1 µM and inactive = higher.

Legend:
Test in all cases: NCI anticancer screen, dose series, 48 h
RXF 393 = test system: RXF 393
MCF7 = test system: MCF7
SF-268 = test system: SF-268
BT-549 = test system: BT-549
M14 = test system: M14
CAKI-1 = test system: CAKI-1
A549 = test system: A549
NCI/ADR-RES = test system: NCI/ADR-RES
NCI-H23 = test system: NCI-H23
Hs-578T = test system: Hs-578T
SW-620 = test system: SW-620
SNB-75 = test system: SNB-75
ACHN = test system: ACHN
SN12C = test system: SN12C
UACC-257 = test system: UACC-257
U-251 = test system: U-251
SF-539 = test system: SF-539
SK-MEL-28 = test system: SK-MEL-28
MDA-MB-231 = test system: MDA-MB-231
HL-60 = test system: HL-60

Measured: GI50

CC1=C(/C=C/C(C)=C/C=C/C(C)=C/C(=O)O)C(C)(C)CCC1 [TRETINOIN]
inactive: RXF 393 > 68.1 µM | MCF7 29 µM | SF-268 > 62.5 µM | BT-549 37.3 µM | M14 49.4 µM | CAKI-1 > 70.6 µM | A549 39.9 µM | NCI/ADR-RES 37.3 µM | NCI-H23 55.3 µM | Hs-578T > 43 µM | SW-620 45.8 µM | SNB-75 > 61.9 µM | ACHN 48.5 µM | SN12C 52 µM | UACC-257 62.4 µM | U-251 51.3 µM | SF-539 48.6 µM | SK-MEL-28 53.8 µM | MDA-MB-231 50.4 µM | HL-60 18 µM
